Source: the supplement of paper PMC10307832

Columns and labels:
Experiment in all cases: relative viability (nuclei count vs DMSO), 5 days (fraction); higher = more cells survive
EHT 1864 + Tozasertib = compound: C1COCCN1CC2=CC(=O)C(=CO2)OCCCCCSC3=C4C=CC(=CC4=NC=C3)C(F)(F)F [EHT 1864] + Cc1cc(Nc2cc(N3CCN(C)CC3)nc(Sc3ccc(NC(=O)C4CC4)cc3)n2)n[nH]1 [Tozasertib] (partner 0.1 µM)
How it was run: (§1)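 Lung cancer cell lines in 1536-well plates got either a single drug or a fixed anchor-drug dose together with five library-drug doses (not always all listed) in √10 steps, by pin tool, on the day after seeding. Nuclei were counted after 5 days, and relative viability is the treated-to-vehicle ratio of nuclei counts. Values are medians of duplicate plates.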

EHT 1864 + Decitabine = compound: C1COCCN1CC2=CC(=O)C(=CO2)OCCCCCSC3=C4C=CC(=CC4=NC=C3)C(F)(F)F [EHT 1864] + Nc1ncn([C@H]2C[C@H](O)[C@@H](CO)O2)c(=O)n1 [Decitabine] (partner 2 µM)
How it was run: as §1

EHT 1864 + Lapatinib = compound: C1COCCN1CC2=CC(=O)C(=CO2)OCCCCCSC3=C4C=CC(=CC4=NC=C3)C(F)(F)F [EHT 1864] + CS(=O)(=O)CCNCc1ccc(-c2ccc3ncnc(Nc4ccc(OCc5cccc(F)c5)c(Cl)c4)c3c2)o1 [Lapatinib] (partner 2 µM)
How it was run: as §1

EHT 1864 + Crizotinib = compound: C1COCCN1CC2=CC(=O)C(=CO2)OCCCCCSC3=C4C=CC(=CC4=NC=C3)C(F)(F)F [EHT 1864] + C[C@@H](Oc1cc(-c2cnn(C3CCNCC3)c2)cnc1N)c1c(Cl)ccc(F)c1Cl [Crizotinib] (partner 1 µM)
How it was run: as §1

Cell Line | relative viability (EHT 1864 + Tozasertib; first compound 0.04 µM) | relative viability (EHT 1864 + Tozasertib; first compound 0.4 µM) | relative viability (EHT 1864 + Tozasertib; first compound 1.265 µM) | relative viability (EHT 1864 + Tozasertib; first compound 4 µM) | relative viability (EHT 1864 + Decitabine; first compound 0.04 µM) | relative viability (EHT 1864 + Decitabine; first compound 0.1265 µM) | relative viability (EHT 1864 + Decitabine; first compound 0.4 µM) | relative viability (EHT 1864 + Decitabine; first compound 1.265 µM) | relative viability (EHT 1864 + Decitabine; first compound 4 µM) | relative viability (EHT 1864 + Lapatinib; first compound 0.04 µM) | relative viability (EHT 1864 + Lapatinib; first compound 0.1265 µM) | relative viability (EHT 1864 + Lapatinib; first compound 0.4 µM) | relative viability (EHT 1864 + Lapatinib; first compound 1.265 µM) | relative viability (EHT 1864 + Lapatinib; first compound 4 µM) | relative viability (EHT 1864 + Crizotinib; first compound 0.04 µM) | relative viability (EHT 1864 + Crizotinib; first compound 0.1265 µM) | relative viability (EHT 1864 + Crizotinib; first compound 0.4 µM) | relative viability (EHT 1864 + Crizotinib; first compound 1.265 µM) | relative viability (EHT 1864 + Crizotinib; first compound 4 µM) | relative viability (EHT 1864 + Tozasertib; first compound 0.1265 µM)
NCI-H1734 | 0.282 | 0.265 | 0.273 | 0.259 | 0.495 | 0.552 | 0.478 | 0.511 | 0.514 | 1.08 | 0.86 | 1.09 | 1.01 | 1.12 | 0.67 | 0.626 | 0.632 | 0.723 | 0.721 | 
NCI-H1755 | 0.606 | 0.483 | 0.487 | 0.536 | 0.803 | 0.685 | 0.702 | 0.707 | 0.755 | 1.08 | 0.866 | 1.04 | 0.998 | 1.05 | 0.891 | 0.833 | 0.794 | 0.814 | 0.845 | 0.51
NCI-H1915 | 0.413 | 0.41 | 0.406 | 0.392 | 0.259 |  | 0.265 | 0.26 | 0.265 | 1.03 |  | 0.993 | 0.937 | 0.902 | 0.86 |  | 0.922 | 0.87 | 0.887 | 
NCI-H1944 | 0.283 | 0.277 | 0.234 | 0.292 | 0.43 |  | 0.429 | 0.433 | 0.417 | 0.907 |  | 0.916 | 0.858 | 0.817 | 1.18 |  | 1.13 | 1.04 | 1.15 | 
NCI-H1975 | 0.852 | 0.599 |  | 0.207 | 0.41 | 0.411 | 0.404 | 0.384 | 0.398 | 0.868 | 0.9 | 0.802 | 0.837 | 0.856 | 0.967 | 0.987 | 0.946 | 0.851 | 0.84 | 0.756
NCI-H1993 | 0.581 | 0.549 | 0.575 | 0.536 | 0.552 |  | 0.598 | 0.645 | 0.57 | 0.918 | 0.812 | 0.806 | 0.864 | 0.858 | 0.882 | 0.78 | 0.751 | 0.817 | 0.958 | 
NCI-H2009 | 0.736 | 0.765 | 0.532 | 0.476 | 0.357 | 0.356 | 0.354 | 0.382 | 0.412 | 0.77 | 0.749 | 0.921 | 0.963 | 0.824 | 0.978 | 1.01 | 1.08 | 0.962 | 0.711 | 0.648
NCI-H2023 | 0.281 | 0.29 | 0.248 | 0.207 | 0.213 | 0.212 | 0.223 | 0.259 | 0.176 | 0.813 | 0.558 | 0.727 | 0.919 | 0.84 | 0.675 | 0.714 | 0.632 | 0.666 | 0.617 | 0.294
NCI-H2085 | 0.8 | 0.791 | 0.641 | 0.576 | 0.604 | 0.551 | 0.588 | 0.656 | 0.555 | 0.809 | 0.678 | 0.807 | 0.716 | 0.744 | 0.71 | 0.764 | 0.846 | 0.762 | 0.778 | 
NCI-H2087 | 0.373 | 0.291 | 0.241 | 0.202 | 0.253 |  | 0.267 | 0.287 | 0.3 | 1.03 | 0.485 | 1.01 | 0.614 | 0.789 | 0.872 | 0.662 | 0.698 | 0.737 | 0.753 | 
NCI-H2126 | 0.839 | 0.819 | 0.8 | 0.81 | 0.652 | 0.572 | 0.547 | 0.62 | 0.566 | 0.779 | 0.723 | 0.759 | 0.798 | 0.697 | 1.01 | 0.938 | 0.998 | 0.992 | 0.988 | 0.689
NCI-H2170 | 0.7 | 0.775 | 0.692 | 0.658 | 0.488 | 0.451 | 0.488 | 0.473 | 0.467 | 0.272 | 0.268 | 0.283 | 0.239 | 0.271 | 1.15 | 1.17 | 1.2 | 1.18 | 1.21 | 0.52
NCI-H2347 | 0.606 | 0.501 |  | 0.562 | 0.571 | 0.488 | 0.675 | 0.64 | 0.559 | 0.961 | 0.638 | 0.814 | 0.793 | 1.12 | 0.693 | 0.518 | 0.715 | 0.709 | 0.868 | 0.446
NCI-H2405 | 0.8 | 0.847 | 0.633 | 0.726 | 0.832 | 0.717 | 0.785 | 0.736 | 0.772 | 1.1 | 1.02 | 1.11 |  | 1.13 | 0.835 | 0.809 | 0.837 | 0.816 | 0.918 | 0.678
NCI-H3122 | 0.358 | 0.398 | 0.398 | 0.392 | 0.373 | 0.423 | 0.42 | 0.432 | 0.339 | 0.976 | 0.825 | 1.03 | 1.08 | 1 | 0.327 | 0.278 | 0.276 | 0.315 | 0.245 | 0.275
PC-3 [JPC-3] | 0.818 | 0.903 | 0.896 | 0.843 | 0.801 | 0.745 | 0.877 | 0.954 | 0.844 | 0.508 | 0.405 | 0.452 | 0.474 | 0.438 | 0.973 | 0.979 | 0.925 | 0.909 | 1.01 | 0.812
PC-14 | 0.607 | 0.555 | 0.623 | 0.53 | 0.213 | 0.201 | 0.265 | 0.244 | 0.162 | 0.316 | 0.28 | 0.325 | 0.294 | 0.272 | 0.966 | 0.962 | 0.832 | 0.865 | 0.899 | 
